Reference: the supplement of paper PMC9663587

Key:
Doxorubicin = compound: COc1cccc2c1C(=O)c1c(O)c3c(c(O)c1C2=O)C[C@@](O)(C(=O)CO)C[C@@H]3O[C@H]1C[C@H](N)[C@H](O)[C@H](C)O1 [Doxorubicin]
BSJ-01-175 = compound: CN(C)C/C=C/C(=O)Nc1ccc(O[C@@H]2CCC[C@@H](Nc3ncc(Cl)c(-c4c[nH]c5ccccc45)n3)C2)cc1 [BSJ-01-175]
INK128/MLN0128 = compound: CC(C)n1nc(-c2ccc3oc(N)nc3c2)c2c(N)ncnc21 [INK128/MLN0128]
Taselisib/GDC0032 = compound: Cc1nc(-c2cn3c(n2)-c2ccc(-c4cnn(C(C)(C)C(N)=O)c4)cc2OCC3)n(C(C)C)n1 [Taselisib/GDC0032]
Ceritinib/LDK378 = compound: Cc1cc(Nc2ncc(Cl)c(Nc3ccccc3S(=O)(=O)C(C)C)n2)c(OC(C)C)cc1C1CCNCC1 [Ceritinib/LDK378]
BSJ-03-123 [1] = compound: T1, CC(=O)c1c(C)c2cnc(Nc3ccc(N4CCN(CCOCCOCCOCCNC(=O)COc5cccc6c5C(=O)N(C5CCC(=O)NC5=O)C6=O)CC4)cn3)nc2n(C2CCCC2)c1=O [BSJ-03-123]
Rucaparib = compound: CNCc1ccc(-c2[nH]c3cc(F)cc4c3c2CCNC4=O)cc1 [Rucaparib]
Vorinostat = compound: O=C(CCCCCCC(=O)Nc1ccccc1)NO [Vorinostat]
THZ531 [2] = compound: T2, CN(C)C/C=C/C(=O)Nc1ccc(C(=O)N2CCC[C@@H](Nc3ncc(Cl)c(-c4c[nH]c5ccccc45)n3)C2)cc1 [THZ531]
[3] = compound: CO[C@@H](C)Cn1c(=O)n(C)c2cnc3ccc(-c4cncc(C(C)(C)O)c4)cc3c21
[4] = compound: CC(=O)c1c(C)c2cnc(Nc3ccc(N4CCNCC4)cn3)nc2n(C2CCCC2)c1=O
Volasertib/BI6727 = compound: CC[C@@H]1C(=O)N(C)c2cnc(Nc3ccc(C(=O)N[C@H]4CC[C@H](N5CCN(CC6CC6)CC5)CC4)cc3OC)nc2N1C(C)C [Volasertib/BI6727]
Neratinib/HKI272 [5] = compound: T3, CCOc1cc2ncc(C#N)c(Nc3ccc(OCc4ccccn4)c(Cl)c3)c2cc1NC(=O)/C=C/CN(C)C [Neratinib/HKI272]
[6] = compound: CC(=O)Nc1cccc(-n2c(=O)n(C3CC3)c(=O)c3c(Nc4ccc(I)cc4F)n(C)c(=O)c(C)c32)c1
Dasatinib = compound: Cc1nc(Nc2ncc(C(=O)Nc3c(C)cccc3Cl)s2)cc(N2CCN(CCO)CC2)n1 [Dasatinib]
AZD2014 = compound: CNC(=O)c1cccc(-c2ccc3c(N4CCOC[C@@H]4C)nc(N4CCOC[C@@H]4C)nc3n2)c1 [AZD2014]
THZ1 = compound: CN(C)C/C=C/C(=O)Nc1ccc(C(=O)Nc2cccc(Nc3ncc(Cl)c(-c4c[nH]c5ccccc45)n3)c2)cc1 [THZ1]; test: increase in dead-cell fraction, 72 h; higher = more death;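 also: breast cancer cell lines in 384-well plates, stained with Hoechst plus LIVE/DEAD far red dye and imaged, cells above an LDR intensity threshold counted dead, Hoechst-negative corpses included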
BSJ-03-123 [7] = compound: T1, BSJ-03-123; test: as above
[8] = compound: CCc1cnn2c(NCc3ccc[n+]([O-])c3)cc(N3CCCC[C@H]3CCO)nc12; test: as above
THZ531 [9] = compound: T2, THZ531; test: as above
Neratinib/HKI272 [10] = compound: T3, Neratinib/HKI272; test: as above
YKL-5-124 = compound: C=CC(=O)Nc1ccc(C(=O)Nc2[nH]nc3c2CN(C(=O)N[C@H](CN(C)C)c2ccccc2)C3(C)C)cc1 [YKL-5-124]; test: as above
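For GR50, 72 h in this document: breast cancer and non-malignant breast epithelial cell lines, Deep Dye Drop or Dye Drop imaging, nine half-log doses, GR normalized to time-zero plates and DMSO-only controls.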

## MDAMB468
Doxorubicin
  GR50, 72 h: 0.00542 µM
BSJ-01-175
  GR50, 72 h: 0.00931 µM
INK128/MLN0128
  GR50, 72 h: 0.0235 µM
Taselisib/GDC0032
  GR50, 72 h: 2.35 µM
Ceritinib/LDK378
  GR50, 72 h: 0.767 µM
BSJ-03-123 [1]
  GR50, 72 h: 1.71 µM
Rucaparib
  GR50, 72 h: 8.56 µM
Vorinostat
  GR50, 72 h: 1.57 µM
THZ531 [2]
  GR50, 72 h: 0.0412 µM
[3]
  GR50, 72 h: 0.0123 µM
[4]
  GR50, 72 h: > 3.16 µM
Volasertib/BI6727
  GR50, 72 h: 0.0021 µM
Neratinib/HKI272 [5]
  GR50, 72 h: 0.158 µM
[6]
  GR50, 72 h: 0.442 µM
Dasatinib
  GR50, 72 h: 4.41 µM
AZD2014
  GR50, 72 h: 0.523 µM
THZ1; 0.0001 µM
  increase in dead-cell fraction: -0.0001
THZ1; 0.0003162 µM
  increase in dead-cell fraction: -0.0124
THZ1; 0.001 µM
  increase in dead-cell fraction: -0.0067
THZ1; 0.003162 µM
  increase in dead-cell fraction: -0.0067
THZ1; 0.01 µM
  increase in dead-cell fraction: 0.0039
THZ1; 0.03162 µM
  increase in dead-cell fraction: 0.0402
THZ1; 0.1 µM
  increase in dead-cell fraction: 0.165
THZ1; 0.3162 µM
  increase in dead-cell fraction: 0.149
THZ1; 1 µM
  increase in dead-cell fraction: 0.313
BSJ-03-123 [7]; 0.001 µM
  increase in dead-cell fraction: -0.0103
BSJ-03-123 [7]; 0.003162 µM
  increase in dead-cell fraction: 0.0028
BSJ-03-123 [7]; 0.01 µM
  increase in dead-cell fraction: 0.0034
BSJ-03-123 [7]; 0.03162 µM
  increase in dead-cell fraction: 0.0062
BSJ-03-123 [7]; 0.1 µM
  increase in dead-cell fraction: 0.0131
BSJ-03-123 [7]; 0.3162 µM
  increase in dead-cell fraction: 0.0169
BSJ-03-123 [7]; 1 µM
  increase in dead-cell fraction: 0.0332
BSJ-03-123 [7]; 3.162 µM
  increase in dead-cell fraction: 0.0309
BSJ-03-123 [7]; 10 µM
  increase in dead-cell fraction: 0.128
[8]; 0.0001 µM
  increase in dead-cell fraction: 0.0037
[8]; 0.0003162 µM
  increase in dead-cell fraction: -0.0009
[8]; 0.001 µM
  increase in dead-cell fraction: -0.0038
[8]; 0.003162 µM
  increase in dead-cell fraction: 0.0016
[8]; 0.01 µM
  increase in dead-cell fraction: 0.0237
[8]; 0.03162 µM
  increase in dead-cell fraction: 0.245
[8]; 0.1 µM
  increase in dead-cell fraction: 0.396
[8]; 0.3162 µM
  increase in dead-cell fraction: 0.462
[8]; 1 µM
  increase in dead-cell fraction: 0.494
THZ531 [9]; 0.0001 µM
  increase in dead-cell fraction: -0.0128
THZ531 [9]; 0.0003162 µM
  increase in dead-cell fraction: 0.0007
THZ531 [9]; 0.001 µM
  increase in dead-cell fraction: -0.006
THZ531 [9]; 0.003162 µM
  increase in dead-cell fraction: 0.0023
THZ531 [9]; 0.01 µM
  increase in dead-cell fraction: 0.0064
THZ531 [9]; 0.03162 µM
  increase in dead-cell fraction: 0.0382
THZ531 [9]; 0.1 µM
  increase in dead-cell fraction: 0.104
THZ531 [9]; 0.3162 µM
  increase in dead-cell fraction: 0.168
THZ531 [9]; 1 µM
  increase in dead-cell fraction: 0.141
Neratinib/HKI272 [10]; 0.0003162 µM
  increase in dead-cell fraction: 0.0075
Neratinib/HKI272 [10]; 0.001 µM
  increase in dead-cell fraction: 0.0021
Neratinib/HKI272 [10]; 0.003162 µM
  increase in dead-cell fraction: 0.0111
Neratinib/HKI272 [10]; 0.01 µM
  increase in dead-cell fraction: 0.0196
Neratinib/HKI272 [10]; 0.03162 µM
  increase in dead-cell fraction: 0.0337
Neratinib/HKI272 [10]; 0.1 µM
  increase in dead-cell fraction: 0.0953
Neratinib/HKI272 [10]; 0.3162 µM
  increase in dead-cell fraction: 0.205
Neratinib/HKI272 [10]; 1 µM
  increase in dead-cell fraction: 0.381
Neratinib/HKI272 [10]; 3.162 µM
  increase in dead-cell fraction: 0.6
YKL-5-124; 0.001 µM
  increase in dead-cell fraction: 0.0818
YKL-5-124; 0.003162 µM
  increase in dead-cell fraction: 0.116
YKL-5-124; 0.01 µM
  increase in dead-cell fraction: 0.0906
YKL-5-124; 0.03162 µM
  increase in dead-cell fraction: 0.163
YKL-5-124; 0.1 µM
  increase in dead-cell fraction: 0.171
YKL-5-124; 0.3162 µM
  increase in dead-cell fraction: 0.183
YKL-5-124; 1 µM
  increase in dead-cell fraction: 0.231
YKL-5-124; 3.162 µM
  increase in dead-cell fraction: 0.213
YKL-5-124; 10 µM
  increase in dead-cell fraction: 0.386

## BT20
Doxorubicin
  GR50, 72 h: 0.00874 µM
BSJ-01-175
  GR50, 72 h: 0.0388 µM
INK128/MLN0128
  GR50, 72 h: 0.0129 µM
Taselisib/GDC0032
  GR50, 72 h: 0.0181 µM
Ceritinib/LDK378
  GR50, 72 h: 1.53 µM
BSJ-03-123 [1]
  GR50, 72 h: 0.386 µM
Rucaparib
  GR50, 72 h: > 10 µM
Vorinostat
  GR50, 72 h: 2.22 µM
THZ531 [2]
  GR50, 72 h: > 1 µM
[3]
  GR50, 72 h: 0.00613 µM
[4]
  GR50, 72 h: 0.0435 µM
Volasertib/BI6727
  GR50, 72 h: 0.00563 µM
Neratinib/HKI272 [5]
  GR50, 72 h: 1.27 µM
[6]
  GR50, 72 h: > 1 µM
Dasatinib
  GR50, 72 h: 0.68 µM
AZD2014
  GR50, 72 h: 0.146 µM
THZ1; 0.0001 µM
  increase in dead-cell fraction: 0.0002
THZ1; 0.0003162 µM
  increase in dead-cell fraction: 0.0003
THZ1; 0.001 µM
  increase in dead-cell fraction: -0.0025
THZ1; 0.003162 µM
  increase in dead-cell fraction: 0.0002
THZ1; 0.01 µM
  increase in dead-cell fraction: -0.0011
THZ1; 0.03162 µM
  increase in dead-cell fraction: -0.0033
THZ1; 0.1 µM
  increase in dead-cell fraction: -0.0037
THZ1; 0.3162 µM
  increase in dead-cell fraction: -0.001
THZ1; 1 µM
  increase in dead-cell fraction: 0.212
BSJ-03-123 [7]; 0.001 µM
  increase in dead-cell fraction: -0.0015
BSJ-03-123 [7]; 0.003162 µM
  increase in dead-cell fraction: 0.0071
BSJ-03-123 [7]; 0.01 µM
  increase in dead-cell fraction: 0.0034
BSJ-03-123 [7]; 0.03162 µM
  increase in dead-cell fraction: 0.0088
BSJ-03-123 [7]; 0.1 µM
  increase in dead-cell fraction: 0.0041
BSJ-03-123 [7]; 0.3162 µM
  increase in dead-cell fraction: 0.0071
BSJ-03-123 [7]; 1 µM
  increase in dead-cell fraction: 0.0076
BSJ-03-123 [7]; 3.162 µM
  increase in dead-cell fraction: 0.008
BSJ-03-123 [7]; 10 µM
  increase in dead-cell fraction: 0.0323
[8]; 0.0001 µM
  increase in dead-cell fraction: 0.0075
[8]; 0.0003162 µM
  increase in dead-cell fraction: -0.0076
[8]; 0.001 µM
  increase in dead-cell fraction: -0.0014
[8]; 0.003162 µM
  increase in dead-cell fraction: -0.0106
[8]; 0.01 µM
  increase in dead-cell fraction: 0.0127
[8]; 0.03162 µM
  increase in dead-cell fraction: 0.456
[8]; 0.1 µM
  increase in dead-cell fraction: 0.789
[8]; 0.3162 µM
  increase in dead-cell fraction: 0.803
[8]; 1 µM
  increase in dead-cell fraction: 0.827
THZ531 [9]; 0.0001 µM
  increase in dead-cell fraction: -0.0017
THZ531 [9]; 0.0003162 µM
  increase in dead-cell fraction: 0.0012
THZ531 [9]; 0.001 µM
  increase in dead-cell fraction: -0.0051
THZ531 [9]; 0.003162 µM
  increase in dead-cell fraction: 0.0009
THZ531 [9]; 0.01 µM
  increase in dead-cell fraction: -0.0031
THZ531 [9]; 0.03162 µM
  increase in dead-cell fraction: -0.0002
THZ531 [9]; 0.1 µM
  increase in dead-cell fraction: 0.003
THZ531 [9]; 0.3162 µM
  increase in dead-cell fraction: 0.0032
THZ531 [9]; 1 µM
  increase in dead-cell fraction: 0.0097
Neratinib/HKI272 [10]; 0.0003162 µM
  increase in dead-cell fraction: -0.0021
Neratinib/HKI272 [10]; 0.001 µM
  increase in dead-cell fraction: -0.0068
Neratinib/HKI272 [10]; 0.003162 µM
  increase in dead-cell fraction: 0.001
Neratinib/HKI272 [10]; 0.01 µM
  increase in dead-cell fraction: 0.004
Neratinib/HKI272 [10]; 0.03162 µM
  increase in dead-cell fraction: 0.0258
Neratinib/HKI272 [10]; 0.1 µM
  increase in dead-cell fraction: 0.0444
Neratinib/HKI272 [10]; 0.3162 µM
  increase in dead-cell fraction: 0.0552
Neratinib/HKI272 [10]; 1 µM
  increase in dead-cell fraction: 0.0626
Neratinib/HKI272 [10]; 3.162 µM
  increase in dead-cell fraction: 0.169
YKL-5-124; 0.001 µM
  increase in dead-cell fraction: 0.0021
YKL-5-124; 0.003162 µM
  increase in dead-cell fraction: 0.0037
YKL-5-124; 0.01 µM
  increase in dead-cell fraction: 0.0071
YKL-5-124; 0.03162 µM
  increase in dead-cell fraction: 0.0095
YKL-5-124; 0.1 µM
  increase in dead-cell fraction: 0.0196
YKL-5-124; 0.3162 µM
  increase in dead-cell fraction: 0.01
YKL-5-124; 1 µM
  increase in dead-cell fraction: 0.0231
YKL-5-124; 3.162 µM
  increase in dead-cell fraction: 0.0292
YKL-5-124; 10 µM
  increase in dead-cell fraction: 0.0824
